According to the NIST ThermoML archive (doi:10.1016/j.fluid.2014.05.018):
Several values for one entry are separate records, joined by “and”; a condition that tells them apart may be missing. Equal values may be shown once. ± gives the expanded uncertainty stated by the source.

Settings: Liquid, Ebulliometric method (Recirculating still)

Row | vapor or sublimation pressure (313.2 K) | vapor or sublimation pressure (333.2 K) | vapor or sublimation pressure (353.2 K) | vapor or sublimation pressure (373.2 K) | vapor or sublimation pressure (403.2 K) | SMILES
1 | 18 ± 6 kPa | 50 ± 6 kPa and 47 ± 6 kPa | 110 ± 6 kPa and 108 ± 6 kPa | 225 ± 6 kPa and 224 ± 6 kPa | 585 ± 7 kPa and 572 ± 7 kPa | CCO [ethanol]
2 | 536 ± 7 kPa | 880 ± 8 kPa | 1363 ± 10 kPa | 2014 ± 12 kPa | 3377 ± 16 kPa | CC(C)C [2-methylpropane]
3 | 379 ± 7 kPa | 645 ± 7 kPa | 1013 ± 8 kPa | 1525 ± 11 kPa | 2660 ± 14 kPa | CCCC [butane]
